Reference: US8889902B2, “Acetylsalicylic acid salts” (priority 2009, dated 2014)
Values belong to the compound of their own block, whether it stands above or below them.

Columns and labels:
[1] = test system: platelet aggregation; test: Platelet aggregation ex vivo after 3 days treatment; assay type: in vivo, rats; settings: 5 mg/kg/d p.o. 3 days
Protocol: Platelet aggregation was studied using whole blood impedance aggregometry on Multiplate (Multiple Platelet Function Analyzer, Dynabyte Medical, Germany) (Toth O et al, Thromb Haemost 2006; 96:781-788. […] Blood samples for in vitro experiment were collected from healthy donor B. […] In the ex vivo experiment blood was collected into plastic tubes covered with hirudin (Dynabyte Medical, Germany) from narcotized rats that were treated for 3 previous days with test substances p.o. The measurements were performed according to modified Dynabyte Medical protocol. […] After 5 min incubation and stirring at 37° C., measurements were initiated by adding of the appropriate agonist solution (sourced from Dynabyte Medical, Germany): After the thrombosis experiment the narcotized animals who received test substances for 3 days were used for platelet aggregation test ex vivo. […] Blood samples were used for measurement between 30 min and 4 h after collection. The measurements were performed according to modified Dynabyte Medical protocol (see above under Platelet aggregation).

[2] = test system: FeCl3 induced carotid artery thrombosis; test: FeCl3 induced carotid artery thrombosis, time till occlusion; assay type: in vivo, Wistar rats; settings: for Time till occlusion, %: control = 100
Source text: We chose an experimental thrombosis model based on rat arterial thrombosis induced by FeCl3 (Kurz K et al, Thromb Res 1990, 60:269-280. Wang X, Xu L, Thromb Res 2005,115:95-100). Tissue damage initiated by iron-mediated chemical oxidation predisposes the injured area to platelet adherence and aggregation followed by coagulation activation and fibrin deposition. Male Wistar rats with mass 350-420 g were used in experiments. Animals were kept in groups of 7-8 in adequate cages in climatized room at 22±1° C., relative humidity 60±5% and 12/12-hour light/darkness cycle with free access to feed and water. All experiments were carried out in accordance with the European Community Council's Directive of 24 Nov. 1986 (86/609/EEC) relative to experimental animal care. All efforts were made to minimize animal suffering and to reduce the number of animals used. Rats were randomly divided into various experimental groups, each consisting of not less than seven animals. The vehicle or test compound MD (25 mg/kg), NA (25 mg/kg), MASA (10 mg/kg), ASA (5 mg/kg) and combination MD+NA (25+25 mg/kg), MASA+NA (10+25 mg/kg) and ASA+NA (5+25 mg/kg) was administered by oral route 2 h before the initiation of thrombosis. Parallel experiments were conducted to compare the effects of a single dose of test substance (given 2 h before the initiation of thrombosis) and repeated doses (once daily for 3 days). […] Rats were anaesthetized with pentobarbital sodium (50 mg/kg, i.p. and 10 mg/kg/h) and were placed on a heat controlled operating table throughout the experiment to maintain a body temperature of 37° C. One of the carotid arteries was exposed by cervical incision, separated from the adherent tissue, vagus nerve, and a flow probe (electromagnetic blood flow meter MFV 1200, Nicon Kohden, Japan) was placed on the exposed segment of common carotid artery to record the blood flow. After a stabilization period of 15 min, thrombosis was induced by topically applying (in contact with the adventitial surface of vessel) two pieces (2×1 mm) of Whatman filter paper, soaked in 15% solution of FeCl3. Thrombosis time of carotid artery was recorded as time taken for the complete cessation of the blood flow and has been reported as time till occlusion (TTO).

[3] = test system: tail bleeding; test: Tail bleeding time during thrombosis experiment; assay type: in vivo, rats; settings: for Tail bleeding time, %: control = 100
Protocol: Additionally during the thrombosis experiment rat tail bleeding time was measured. The tail was transected 5 mm from the tip with scalpel and the tail was immediately immersed into 37° C. warm isotonic saline until termination of bleeding was noted. Termination of bleeding was defined as the time of complete stop of bleeding with no recurrence of bleeding within the next 30 s.

[4] = test system: platelet aggregation; test: Platelet aggregation in vitro, whole blood impedance aggregometry (Multiplate); assay type: cell-based, healthy donor; settings: 3 × 10^−4
Protocol: Platelet aggregation was studied using whole blood impedance aggregometry on Multiplate (Multiple Platelet Function Analyzer, Dynabyte Medical, Germany) (Toth O et al, Thromb Haemost 2006; 96:781-788. […] Blood samples for in vitro experiment were collected from healthy donor B. […] In the ex vivo experiment blood was collected into plastic tubes covered with hirudin (Dynabyte Medical, Germany) from narcotized rats that were treated for 3 previous days with test substances p.o. The measurements were performed according to modified Dynabyte Medical protocol. […] After 5 min incubation and stirring at 37° C., measurements were initiated by adding of the appropriate agonist solution (sourced from Dynabyte Medical, Germany): 1) adenosine diphosphate (ADP)-ADP-Test. ADP stimulates platelet activation by the ADP receptors (P2Y 12 and other). […] 3) ADP HS test (prostaglandin E1 in combination with ADP). […] Aggregation curves were recorded for 6 min. and analyzed using Dynabyte Medical software. We calculated the following parameters of platelet aggregation: […] It is affected by the total height of the aggregation curve as well as by its slope and is best suited to express the overall platelet activity.

[5] = Stability at ambient conditions
[6] = Solubility in water
[7] = test system: rat ear skin temperature; test: Ear skin temperature rise caused by NA, s.c. administration; assay type: in vivo, Wistar rats; settings: LA 0.3 mg/kg s.c. alone
Protocol: Male Wistar rats (280-330 g) were used. Animals were held in groups of 6 in climatized rooms at 22±1° C., relative humidity 60±5%, and 12/12-hour light/dark cycle with free access to drinking water and feed (R3—Lactamin AB, Sweden). For registration of changes in skin temperature of intact rats contactless temperature recording method was used (Papaliodis D et al, Br J Pharmacol 2008; 153:1382-1387). Temperature measurements were performed with a hand-held infrared thermometer (Model Proscan 510, TFA-Dostman). Animals were habituated to handling and to the infrared probe for 3 days before use. Temperature readings from the dorsal side of each ear were recorded without anaesthesia at beginning and during experiment. The ear temperature was measured every 5 min. for a period of up to 60 min. The animals were returned to their cages between measurements. NA, MD and MASA were dissolved in saline and pH was corrected immediately before usage. LA (MK 0524, Cayman Chemicals) was first dissolved in DMSO and then freshly diluted with 0.9% NaCl, on each day of the experiment. The rate of NA and LA combination was based on Summary of Product Characteristics for Tredaptive™ (nicotinic acid/laropiprant) 1000 mg/20 mg modified-release tablets.
The influence of LA, MD or MASA alone on skin temperature was checked. Each investigated compound was introduced s.c. simultaneously with NA as LA+NA [0] or 30 min in advance to NA as LA+NA [30].

[8] = 5 mg/kg/d p.o., repeated, 3 days

Tail bleeding time ([3]; 5 mg/kg p.o., single dose): 11.9 ± 3.62 min
Tail bleeding time, % ([3]; 5 mg/kg p.o., single dose): 134%
Tail bleeding time [3, 8]: 18.3 ± 3.78^1 min
Tail bleeding time, % [3, 8]: 213%
SMILES: COC(=O)[C@H](c1ccccc1Cl)N1CCc2sccc2C1 [CL, clopidogrel]
AUC ([1]; AA induced): 905 ± 53.5^& AU*min
Amax ([1]; AA induced): 160.7 ± 13.5^&@ AU
AUC ([1]; ADP induced): 423 ± 39.4^2& AU*min
Amax ([1]; ADP induced): 68.2 ± 15.1^2& AU
AUC ([1]; PGE1 + ADP induced): 259 ± 49.3^2& AU*min
Amax ([1]; PGE1 + ADP induced): 49.7 ± 9.9^3&& AU
Time till occlusion ([2]; 5 mg/kg p.o., single dose 2 h before): 31.7 ± 2.40^1 min
Time till occlusion, % ([2]; 5 mg/kg p.o., single dose): 130%
Time till occlusion [2, 8]: 49.1 ± 7.75^1 min
Time till occlusion, % [2, 8]: 194%

SMILES: OCCN(CCO)c1nc(N2CCCCC2)c2nc(N(CCO)CCO)nc(N3CCCCC3)c2n1 [DI, dipyridamole]
AUC ([4]; AA induced): 1104 ± 45.5^&@@ AU*min
Amax ([4]; AA induced): 173.9 ± 5.2^&@@ AU
AUC ([4]; ADP induced): 665 ± 44.1^2& AU*min
Amax ([4]; ADP induced): 111.1 ± 6.9^2& AU

SMILES: CC(=O)Oc1ccccc1C(=O)[O-].C[N+](C)(C)CCCC(=O)O [Example 1, 4-trimethylammoniobutanoate Acetylsalicylic Acid Addition Salt]
stability (in words) [5]: stable at ambient conditions
solubility in water (in words) [6]: water soluble

SMILES: CS(=O)(=O)c1cc(F)cc2c3c(n(Cc4ccc(Cl)cc4)c12)[C@@H](CC(=O)O)CC3 [LA, laropiprant]
Maximum temperature [7]: 29.5 ± 0.35^$$$ ° C.
